Data as given in US9849099B2, “Antimicrobial compounds, compositions and methods of use thereof” (WISCONSIN ALUMNI RESEARCH FOUNDATION, priority 2014, dated 2017).
In brackets after ≈: the same amount, converted by molar mass. Entries after “also recorded” stand apart in the source; their conditions may differ. Where two headings read alike, the source gives them in different places.

How the values were obtained:
Type in all cases: cell-based
[1] = tested on: Bacillus subtilis 168; experiment: MIC micro-dilution
Description: (§1) Luria-Bertani (LB) media (10 g/L tryptone, 10 g/L NaCl, 5 g/L yeast extract, pH 7.0) was used to grow all bacterial strains, except Streptococcus pyogenes. Streptococcus pyogenes was grown in Mueller-Hinton broth containing 5% (v/v) sheep blood. All bacterial cultures were grown at 37° C. All the E. coli strains were grown while shaking at 200 rpm, while clinical pathogens were incubated without shaking.
(§2) The MIC of all the strains was determined in LB media except Streptococcus pyogenes, which was grown in Mueller-Hinton media containing 5% (v/v) sheep blood. The micro-dilution method was utilized in 96-well clear flat-bottom plates (100 μL/well) according to the CLSI guidelines. All strains were grown at 37° C. for 16-18 hours in presence of various concentrations of compound. The MIC was determined by a visual inspection and experiments were performed in triplicate.

[2] = tested on: E. coli BW25113 ΔtolC; experiment: MIC micro-dilution; details: Escherichia coli, LB media, 37° C., 16-18 hours
Description: as §1, §2

[3] = tested on: E. coli BW25113; experiment: MIC micro-dilution; details: Escherichia coli, LB media, 37° C., 16-18 hours
Description: as §1, §2

[4] = tested on: Acinetobacter baumannii; experiment: MIC micro-dilution
Description: as §1, §2

[5] = tested on: Edwardsiella tarda; experiment: MIC micro-dilution
Description: as §1, §2

[6] = tested on: Enterobacter aerogenes; experiment: MIC micro-dilution; details: Klebsiella aerogenes
Description: as §1, §2

[7] = tested on: Klebsiella pneumoniae; experiment: MIC micro-dilution
Description: as §1, §2

[8] = tested on: Morganella morganii; experiment: MIC micro-dilution
Description: as §1, §2

[9] = tested on: Pseudomonas aeruginosa; experiment: MIC micro-dilution
Description: as §1, §2

[10] = tested on: Salmonella typhimurium; experiment: MIC micro-dilution; details: Salmonella enterica
Description: as §1, §2

[11] = tested on: Shigella boydii; experiment: MIC micro-dilution; details: LB media, 37° C., 16-18 hours, read-out: MIC
Description: as §1, §2

[12] = tested on: Staphylococcus aureus; experiment: MIC micro-dilution
Description: as §1, §2

[13] = tested on: Vibrio cholerae; experiment: MIC micro-dilution
Description: as §1, §2

[14] = tested on: broad panel of human pathogens; experiment: MIC against the panel of pathogens; details: panel of pathogens
Description: as §1, §2

[15] = Bacillus subtilis 168, LB media, 37° C., 16-18 hours, read-out: MIC
[16] = LB media, 37° C., 16-18 hours, read-out: MIC
[17] = Enterobacter aerogenes, LB media, 37° C., 16-18 hours, read-out: MIC
[18] = Salmonella typhimurium, LB media, 37° C., 16-18 hours, read-out: MIC

CCCCCCCCCOc1cccc(CN)c1 [Compound 18]
MIC [1, 15]: 4.7 µg/mL (≈ 18.8 µM) | MIC [2]: 4.7 µg/mL (≈ 18.8 µM) | MIC ([3]; E. coli BW25113, read-out: MIC): 9.4 µg/mL (≈ 37.7 µM)

CCCCCCCCCCOc1ccc2[nH]cc(CCN)c2c1 [Compound 9]
MIC [4, 16]: 6.3 µg/mL (≈ 19.9 µM) | MIC [2]: 3.2 µg/mL (≈ 10.1 µM) | MIC ([3]; E. coli BW25113, read-out: MIC): 6.3 µg/mL (≈ 19.9 µM) | MIC [5, 16]: 25 µg/mL (≈ 79 µM) | MIC [6, 17]: 13 µg/mL (≈ 41.1 µM) | MIC [7, 16]: 6.3 µg/mL (≈ 19.9 µM) | MIC [8, 16]: > 101 µg/mL | MIC [9, 16]: > 101 µg/mL | MIC [10, 18]: 6.3 µg/mL (≈ 19.9 µM) | MIC [11]: 3.2 µg/mL (≈ 10.1 µM) | MIC [12, 16]: 6.3 µg/mL (≈ 19.9 µM) | MIC [13]: 6.3 µg/mL (≈ 19.9 µM) | MICs compared with Compound 1 [14]: either the same or 2-fold different from 1

CCCCOc1ccc2[nH]cc(CCN)c2c1 [Compound 7]
MIC [4]: > 74 µg/mL | MIC [2]: > 74 µg/mL | MIC ([3]; BW25113, E. coli BW25113): > 74 µg/mL | MIC [5]: > 74 µg/mL | MIC [6]: > 74 µg/mL | MIC [7]: > 74 µg/mL | MIC [8]: > 74 µg/mL | MIC [9]: > 74 µg/mL | MIC ([10]; TYPHIMURIUM): > 74 µg/mL | MIC [11]: > 74 µg/mL | MIC [12]: > 74 µg/mL | MIC [13]: > 74 µg/mL

CCCCCCCCCOc1ccc2[nH]ccc2c1 [Compound 14]
MIC [4, 16]: > 83 µg/mL | MIC [1, 15]: > 83 µg/mL | MIC [2]: > 83 µg/mL | MIC ([3]; E. coli BW25113, read-out: MIC): > 83 µg/mL | MIC [5, 16]: > 83 µg/mL | MIC [6, 17]: > 83 µg/mL | MIC [7, 16]: > 83 µg/mL | MIC [8, 16]: > 83 µg/mL | MIC [9, 16]: > 83 µg/mL | MIC [10, 18]: > 83 µg/mL | MIC [11]: > 83 µg/mL | MIC [12, 16]: > 83 µg/mL | MIC [13]: > 83 µg/mL

NCCc1c[nH]c2ccc(O)cc12 [Compound 2]
MIC [2]: > 51 µg/mL | MIC ([3]; BW25113, E. coli BW25113): > 51 µg/mL

CCCCCCCCCOc1ccc2[nH]cc(CCNC(=O)OC(C)C)c2c1 [Compound 13]
MIC [4, 16]: > 130 µg/mL | MIC [1, 15]: > 130 µg/mL | MIC [2]: > 130 µg/mL | MIC ([3]; E. coli BW25113, read-out: MIC): > 130 µg/mL | MIC [5, 16]: > 130 µg/mL | MIC [6, 17]: > 130 µg/mL | MIC [7, 16]: > 130 µg/mL | MIC [8, 16]: > 130 µg/mL | MIC [9, 16]: > 130 µg/mL | MIC [10, 18]: > 130 µg/mL | MIC [11]: > 130 µg/mL | MIC [12, 16]: > 130 µg/mL | MIC [13]: > 130 µg/mL

COc1ccc2[nH]cc(CCN)c2c1 [Compound 3]
MIC [2]: > 56 µg/mL | MIC ([3]; BW25113, E. coli BW25113): > 56 µg/mL

NCCc1c[nH]c2ccccc12 [Compound 4]
MIC [2]: > 61 µg/mL | MIC ([3]; BW25113, E. coli BW25113): > 61 µg/mL

NCCc1c[nH]c2ccc(OCCCCCCCc3ccccc3)cc12 [Compound 11]
MIC [4, 16]: 7 µg/mL (≈ 20 µM) | MIC [2]: 1.8 µg/mL (≈ 5.14 µM) | MIC ([3]; E. coli BW25113, read-out: MIC): 14 µg/mL (≈ 39.9 µM) | MIC [5, 16]: 28 µg/mL (≈ 79.9 µM) | MIC [6, 17]: 14 µg/mL (≈ 39.9 µM) | MIC [7, 16]: 7 µg/mL (≈ 20 µM) | MIC [8, 16]: > 112 µg/mL | MIC [9, 16]: 56 µg/mL (≈ 160 µM) | MIC [10, 18]: 7 µg/mL (≈ 20 µM) | MIC [11]: 7 µg/mL (≈ 20 µM) | MIC [12, 16]: 3.5 µg/mL (≈ 9.99 µM) | MIC [13]: 7 µg/mL (≈ 20 µM) | MICs compared with Compound 1 [14]: either the same or 2× different from Compound 1; also recorded: either the same or 2-fold different from 1

CCCCCCCCCCCCCCCOc1ccc2[nH]cc(CCN)c2c1 [Compound 12]
MIC [4]: > 124 µg/mL | MIC [2]: > 124 µg/mL | MIC ([3]; BW25113, E. coli BW25113): > 124 µg/mL | MIC [5]: > 124 µg/mL | MIC [6]: > 124 µg/mL | MIC [7]: > 124 µg/mL | MIC [8]: > 124 µg/mL | MIC [9]: > 124 µg/mL | MIC ([10]; TYPHIMURIUM): > 124 µg/mL | MIC [11]: > 124 µg/mL | MIC [12]: > 124 µg/mL | MIC [13]: > 124 µg/mL

CCCCCCOc1ccc2[nH]cc(CCN)c2c1 [Compound 8]
MIC [4]: 42 µg/mL (≈ 161 µM) | MIC [2]: 42 µg/mL (≈ 161 µM) | MIC ([3]; BW25113, E. coli BW25113): 42 µg/mL (≈ 161 µM) | MIC [5]: 42 µg/mL (≈ 161 µM) | MIC [6]: 42 µg/mL (≈ 161 µM) | MIC [7]: 42 µg/mL (≈ 161 µM) | MIC [8]: > 83 µg/mL | MIC [9]: > 83 µg/mL | MIC ([10]; TYPHIMURIUM): 42 µg/mL (≈ 161 µM) | MIC [11]: 42 µg/mL (≈ 161 µM) | MIC [12]: 42 µg/mL (≈ 161 µM) | MIC [13]: 42 µg/mL (≈ 161 µM)

CCCCCCCCCOc1ccc2[nH]cc(CC[N+](C)(C)C)c2c1 [Compound 15]
MIC [4]: 52 µg/mL | MIC ([1]; Bacillus subtilis, 168): 52 µg/mL | MIC [2]: 6.5 µg/mL | MIC ([3]; BW25113, E. coli BW25113): 52 µg/mL | MIC [5]: 26 µg/mL | MIC [6]: 52 µg/mL | MIC [7]: 26 µg/mL | MIC [8]: > 104 µg/mL | MIC [9]: 52 µg/mL | MIC ([10]; TYPHIMURIUM): 26 µg/mL | MIC [11]: 26 µg/mL | MIC [12]: 6.5 µg/mL | MIC [13]: > 104 µg/mL

Cc1[nH]c2ccc(O)cc2c1CCN [Compound 5]
MIC [2]: > 61 µg/mL | MIC ([3]; BW25113, E. coli BW25113): > 61 µg/mL

CC(C)CCCC(C)CCOc1ccc2[nH]cc(CCN)c2c1 (centres unmarked) [Compound 10]
MIC [4, 16]: 13 µg/mL (≈ 41.1 µM) | MIC [2]: 3.2 µg/mL (≈ 10.1 µM) | MIC ([3]; E. coli BW25113, read-out: MIC): 13 µg/mL (≈ 41.1 µM) | MIC [5, 16]: 25 µg/mL (≈ 79 µM) | MIC [6, 17]: 13 µg/mL (≈ 41.1 µM) | MIC [7, 16]: 13 µg/mL (≈ 41.1 µM) | MIC [8, 16]: > 101 µg/mL | MIC [9, 16]: 25 µg/mL (≈ 79 µM) | MIC [10, 18]: 6.3 µg/mL (≈ 19.9 µM) | MIC [11]: 6.3 µg/mL (≈ 19.9 µM) | MIC [12, 16]: 6.3 µg/mL (≈ 19.9 µM) | MIC [13]: 6.3 µg/mL (≈ 19.9 µM) | MICs compared with Compound 1 [14]: either the same or 2× different from Compound 1; also recorded: either the same or 2-fold different from 1

CCCCCCCCCOc1ccc(CCN)cc1 [Compound 17]
MIC ([1]; Bacillus subtilis, 168): 0.66 µg/mL (≈ 2.51 µM) | MIC [2]: 1.3 µg/mL (≈ 4.93 µM) | MIC ([3]; BW25113, E. coli BW25113): 5.3 µg/mL (≈ 20.1 µM)

COc1ccc2c(CCN)c[nH]c2c1 [Compound 6]
MIC [2]: > 61 µg/mL | MIC ([3]; BW25113, E. coli BW25113): > 61 µg/mL

CCCCCCCCCOc1cccc(N)c1 [Compound 19]
MIC [1, 15]: 40 µg/mL (≈ 170 µM) | MIC [2]: 10 µg/mL (≈ 42.5 µM) | MIC ([3]; E. coli BW25113, read-out: MIC): > 40 µg/mL

CCCCCCCCCOc1cccc(CCN)c1 [Compound 16]
MIC [4]: 5.3 µg/mL (≈ 20.1 µM) | MIC ([1]; Bacillus subtilis, 168): 0.66 µg/mL (≈ 2.51 µM) | MIC [2]: 2.6 µg/mL (≈ 9.87 µM) | MIC ([3]; BW25113, E. coli BW25113): 5.3 µg/mL (≈ 20.1 µM) | MIC [5]: 5.3 µg/mL (≈ 20.1 µM) | MIC [6]: 5.3 µg/mL (≈ 20.1 µM) | MIC [7]: 5.3 µg/mL (≈ 20.1 µM) | MIC [8]: 11 µg/mL (≈ 41.8 µM) | MIC [9]: 21 µg/mL (≈ 79.7 µM) | MIC ([10]; TYPHIMURIUM): 5.3 µg/mL (≈ 20.1 µM) | MIC [11]: 5.3 µg/mL (≈ 20.1 µM) | MIC [12]: 5.3 µg/mL (≈ 20.1 µM) | MIC [13]: 5.3 µg/mL (≈ 20.1 µM)
